Converted amounts (≈) assume the structure as drawn. Read-outs that look alike come from different tables or passages of the source.
How the values were obtained:
[1] = in vitro; settings: human, microsomes
[2] = in vitro; settings: human, Caco-2, pH 7.4
[3] = target: Human PKa (Homo sapiens, UniProt P03952); assay: biochemical; type: biochemical
[4] = Rat pharmacokinetics; type: in vivo, Sprague-Dawley rats; settings: male, Sprague-Dawley, plasma, iv, 1 mg/kg
[5] = Dog pharmacokinetics; type: in vivo, beagle dogs; settings: male, beagle, plasma, iv, 1 mg/kg
[6] = physchem; settings: aqueous buffer, kinetic from dmso stock
[7] = target: tissue kallikrein (KLK1) (Homo sapiens, UniProt P06870); assay: biochemical; settings: IC50 / off target protease selectivity
tissue kallikrein (KLK1), sequence (P06870 25-262): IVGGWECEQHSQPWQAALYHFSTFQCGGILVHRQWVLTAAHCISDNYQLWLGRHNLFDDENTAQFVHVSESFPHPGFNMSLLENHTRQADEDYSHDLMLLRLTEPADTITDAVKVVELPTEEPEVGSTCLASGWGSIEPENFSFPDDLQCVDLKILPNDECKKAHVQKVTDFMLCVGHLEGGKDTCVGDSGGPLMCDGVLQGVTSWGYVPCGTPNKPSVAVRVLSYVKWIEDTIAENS

[8] = target: plasmin (Homo sapiens, UniProt P00747); assay: biochemical; settings: IC50 / off target protease selectivity
plasmin, sequence (P00747 581-810 limits assumed): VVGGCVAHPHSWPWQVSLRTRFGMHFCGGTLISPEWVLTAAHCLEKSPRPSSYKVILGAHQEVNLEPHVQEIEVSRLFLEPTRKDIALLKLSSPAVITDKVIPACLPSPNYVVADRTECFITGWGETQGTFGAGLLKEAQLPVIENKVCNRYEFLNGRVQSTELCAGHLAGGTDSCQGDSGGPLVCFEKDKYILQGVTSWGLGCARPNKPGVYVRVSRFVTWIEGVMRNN
plasmin, sequence (P00747 97-580 partner limits assumed): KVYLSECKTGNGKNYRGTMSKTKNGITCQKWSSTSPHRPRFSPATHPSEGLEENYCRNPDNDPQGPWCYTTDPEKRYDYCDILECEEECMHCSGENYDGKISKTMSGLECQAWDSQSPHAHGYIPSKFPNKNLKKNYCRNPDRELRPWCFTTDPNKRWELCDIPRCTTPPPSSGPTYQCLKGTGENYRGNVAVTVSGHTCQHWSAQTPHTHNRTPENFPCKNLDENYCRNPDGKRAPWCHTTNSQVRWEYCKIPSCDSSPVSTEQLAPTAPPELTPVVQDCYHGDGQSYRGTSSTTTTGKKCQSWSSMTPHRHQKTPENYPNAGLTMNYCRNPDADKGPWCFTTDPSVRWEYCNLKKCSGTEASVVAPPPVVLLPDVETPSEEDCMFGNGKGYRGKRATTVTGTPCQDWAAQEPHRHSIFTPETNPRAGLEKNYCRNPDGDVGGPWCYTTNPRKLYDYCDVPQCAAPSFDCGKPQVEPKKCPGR

[9] = Thermodynamic solubility in FaSSIF / FaSSGF; type: physicochemical; settings: pH 6.5, solubility FaSSIF, theoretical concentration 1 mg/mL
[10] = target: thrombin (Homo sapiens, UniProt P00734); assay: biochemical; settings: IC50 / off target protease selectivity
[11] = target: T1, factor XIIa (Homo sapiens, UniProt P00748); assay: biochemical; settings: IC50 / off target protease selectivity, FXIIa
T1 sequence (P00748 373-615 limits assumed): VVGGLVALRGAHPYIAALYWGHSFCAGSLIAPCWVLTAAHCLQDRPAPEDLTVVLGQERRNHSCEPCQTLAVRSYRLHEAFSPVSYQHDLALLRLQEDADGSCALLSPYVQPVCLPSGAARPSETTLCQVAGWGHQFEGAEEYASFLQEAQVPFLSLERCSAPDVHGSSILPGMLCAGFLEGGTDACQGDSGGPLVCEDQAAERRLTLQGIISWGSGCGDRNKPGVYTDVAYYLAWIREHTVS

[12] = target: factor XIa (Homo sapiens, UniProt P03951); assay: biochemical; settings: IC50 / off target protease selectivity, FXIa
factor XIa, sequence (P03951 388-625 limits assumed): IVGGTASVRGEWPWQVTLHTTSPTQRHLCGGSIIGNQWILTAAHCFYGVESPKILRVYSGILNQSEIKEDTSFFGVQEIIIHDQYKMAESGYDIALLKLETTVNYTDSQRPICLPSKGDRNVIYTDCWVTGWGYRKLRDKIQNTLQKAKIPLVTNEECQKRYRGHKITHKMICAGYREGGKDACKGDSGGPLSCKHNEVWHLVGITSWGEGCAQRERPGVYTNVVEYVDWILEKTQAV
factor XIa, sequence (P03951 19-387 partner limits assumed): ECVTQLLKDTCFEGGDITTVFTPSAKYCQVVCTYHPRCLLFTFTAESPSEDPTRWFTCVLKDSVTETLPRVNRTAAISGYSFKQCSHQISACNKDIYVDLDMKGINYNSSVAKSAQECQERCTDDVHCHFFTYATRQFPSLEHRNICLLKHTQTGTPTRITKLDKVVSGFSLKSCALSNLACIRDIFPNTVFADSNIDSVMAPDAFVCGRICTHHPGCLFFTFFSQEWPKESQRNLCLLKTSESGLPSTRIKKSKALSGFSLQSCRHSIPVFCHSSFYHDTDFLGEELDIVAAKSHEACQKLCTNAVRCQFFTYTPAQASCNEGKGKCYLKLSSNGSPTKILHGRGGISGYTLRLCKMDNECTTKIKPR

[13] = system: bacterial mutagenicity; assay: Non-GLP bacterial mutagenicity Ames test
[14] = target: factor Xa (Homo sapiens, UniProt P00742); settings: read-out: IC50 / off target protease selectivity, FXa
factor Xa, sequence (P00742 235-488 limits assumed): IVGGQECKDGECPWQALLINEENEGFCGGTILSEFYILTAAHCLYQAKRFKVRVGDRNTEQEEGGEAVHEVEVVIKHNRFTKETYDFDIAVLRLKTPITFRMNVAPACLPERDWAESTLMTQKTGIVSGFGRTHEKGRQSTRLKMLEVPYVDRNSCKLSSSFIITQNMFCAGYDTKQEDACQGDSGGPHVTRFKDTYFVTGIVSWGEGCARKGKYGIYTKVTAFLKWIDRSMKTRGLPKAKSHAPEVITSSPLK
factor Xa, sequence (P00742 41-179 partner limits assumed): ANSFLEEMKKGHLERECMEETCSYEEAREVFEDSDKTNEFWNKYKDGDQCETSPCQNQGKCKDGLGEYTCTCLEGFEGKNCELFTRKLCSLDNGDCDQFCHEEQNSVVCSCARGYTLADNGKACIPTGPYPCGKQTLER

[15] = system: panel of CYP450 enzymes; assay: CYP450 inhibition panel as a whole; settings: up to 25 μM
[16] = system: trypsin; settings: read-out: IC50 / off target protease selectivity, trypsin
[17] = target: tryptase; assay: Protease selectivity, fluorogenic substrate cleavage assay; type: biochemical, human; settings: read-out: IC50 / off target protease selectivity, tryptase
[18] = Measured pKa, PION UV-metric method; type: physicochemical
[19] = Human plasma protein binding; type: in vitro ADME; settings: % bound
[20] = target: hERG channel (Homo sapiens, UniProt Q12809); assay: hERG whole-cell patch clamp; settings: highest level tested 33 μM
hERG channel, sequence (Q12809 whole entry): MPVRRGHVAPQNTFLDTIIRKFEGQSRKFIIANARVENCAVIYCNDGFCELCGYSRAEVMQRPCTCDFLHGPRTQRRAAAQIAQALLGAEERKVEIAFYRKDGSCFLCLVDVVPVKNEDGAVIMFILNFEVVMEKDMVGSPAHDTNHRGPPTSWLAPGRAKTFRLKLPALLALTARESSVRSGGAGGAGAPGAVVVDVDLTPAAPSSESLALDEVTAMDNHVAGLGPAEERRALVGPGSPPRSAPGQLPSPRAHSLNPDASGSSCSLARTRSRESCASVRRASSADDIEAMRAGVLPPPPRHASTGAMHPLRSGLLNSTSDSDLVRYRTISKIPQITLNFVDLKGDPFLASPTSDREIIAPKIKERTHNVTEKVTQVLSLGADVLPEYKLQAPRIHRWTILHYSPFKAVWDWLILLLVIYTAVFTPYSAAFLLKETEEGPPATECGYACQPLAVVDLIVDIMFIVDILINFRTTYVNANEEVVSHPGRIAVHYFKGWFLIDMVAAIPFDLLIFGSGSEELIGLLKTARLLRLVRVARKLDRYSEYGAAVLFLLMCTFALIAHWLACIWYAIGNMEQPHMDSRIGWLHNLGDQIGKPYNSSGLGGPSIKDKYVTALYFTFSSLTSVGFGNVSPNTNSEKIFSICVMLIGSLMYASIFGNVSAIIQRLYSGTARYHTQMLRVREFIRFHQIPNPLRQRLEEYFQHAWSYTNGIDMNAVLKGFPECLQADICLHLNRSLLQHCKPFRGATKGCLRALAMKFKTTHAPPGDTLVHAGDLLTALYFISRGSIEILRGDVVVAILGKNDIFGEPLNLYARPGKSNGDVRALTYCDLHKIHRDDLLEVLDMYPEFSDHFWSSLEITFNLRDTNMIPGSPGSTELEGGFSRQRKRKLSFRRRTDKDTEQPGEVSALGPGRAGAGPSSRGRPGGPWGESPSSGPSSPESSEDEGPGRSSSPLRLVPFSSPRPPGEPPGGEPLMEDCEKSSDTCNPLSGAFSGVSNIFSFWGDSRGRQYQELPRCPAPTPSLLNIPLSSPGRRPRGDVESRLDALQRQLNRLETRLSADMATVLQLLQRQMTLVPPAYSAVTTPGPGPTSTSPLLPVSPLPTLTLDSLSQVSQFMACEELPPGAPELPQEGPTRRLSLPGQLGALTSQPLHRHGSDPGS

Human PKa, sequence (P03952 391-638 limits assumed): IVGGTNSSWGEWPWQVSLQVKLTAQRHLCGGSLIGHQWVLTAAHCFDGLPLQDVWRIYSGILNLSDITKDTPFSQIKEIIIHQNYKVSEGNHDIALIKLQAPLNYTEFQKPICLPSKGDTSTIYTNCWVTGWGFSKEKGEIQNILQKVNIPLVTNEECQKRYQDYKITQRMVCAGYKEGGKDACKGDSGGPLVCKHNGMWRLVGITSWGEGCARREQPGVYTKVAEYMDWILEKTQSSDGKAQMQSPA
Human PKa, sequence (P03952 20-390 partner limits assumed): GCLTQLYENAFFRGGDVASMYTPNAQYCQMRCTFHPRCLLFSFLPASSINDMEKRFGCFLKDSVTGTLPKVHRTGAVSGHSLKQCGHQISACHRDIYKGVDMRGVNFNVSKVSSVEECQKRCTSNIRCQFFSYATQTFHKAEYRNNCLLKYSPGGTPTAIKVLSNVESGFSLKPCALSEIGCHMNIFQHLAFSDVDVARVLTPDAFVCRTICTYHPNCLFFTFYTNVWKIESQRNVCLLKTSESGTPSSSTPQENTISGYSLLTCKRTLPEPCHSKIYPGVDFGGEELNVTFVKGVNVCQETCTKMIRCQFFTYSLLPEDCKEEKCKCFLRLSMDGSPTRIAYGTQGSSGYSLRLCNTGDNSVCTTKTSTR

In the case of `Nc1nccc2cc(CNC(=O)c3cnn(Cc4ccc(Cn5ccccc5=O)cc4)c3)ccc12` [Compound 6, Nc1nccc2cc(ccc12)CNC(=O)c1cnn(c1)Cc1ccc(cc1)CN1C=CC=CC1=O], the microsomal CLint [1] is reported as 37 µL/min/mg and the Papp A→B [2] is reported as 2 ×10⁻⁶ cm/s.

In the case of `COCc1nn(Cc2ccc(Cn3ccccc3=O)cc2)cc1C(=O)NCc1c(F)ccc(OC)c1F` [Compound 13b, COCc1nn(cc1C(=O)NCc1c(ccc(c1F)OC)F)Cc1ccc(cc1)CN1C=CC=CC1=O], the “kinetic sol 0.1 N HCl” value is reported as >0.12 mg/mL, the “kinetic sol aq assay buffer (pH 7.4)” value is reported as >0.12 mg/mL and the “kinetics (in words)” value [3] is reported as “fast kinetics”. The LLE ([3]; lipophilic ligand efficiency) was 5.4, the clearance at 24 h [4] was 12.8 mL/min/kg and the clearance at 24 h [5] was 11.5 mL/min/kg.

In the case of `COCc1nn(Cc2ccc(Cn3ccccc3=O)cc2)cc1C(=O)NCc1cccc(OC)c1F` [Compound 13d, COCc1nn(cc1C(=O)NCc1cccc(c1F)OC)Cc1ccc(cc1)CN1C=CC=CC1=O], the “kinetic sol 0.1 N HCl” value is reported as >0.12 mg/mL and the “kinetic sol aq assay buffer (pH 7.4)” value is reported as >0.12 mg/mL.

For `COc1cccc(CNC(=O)c2cn(Cc3ccc(Cn4ccccc4=O)cc3)nc2N(C)C)c1F` [Compound 13e, COc1cccc(c1F)CNC(=O)c1cn(nc1N(C)C)Cc1ccc(cc1)CN1C=CC=CC1=O], the “kinetic sol 0.1 N HCl” value was >0.12 mg/mL and the “kinetic sol aq assay buffer (pH 7.4)” value was >0.12 mg/mL.

With `COc1cccc(CNC(=O)c2cn(Cc3ccc(Cn4ccccc4=O)cc3)nc2C2CC2)c1F` [Compound 13f, COc1cccc(c1F)CNC(=O)c1cn(nc1C1CC1)Cc1ccc(cc1)CN1C=CC=CC1=O] the “kinetic sol 0.1 N HCl” value was >0.11 mg/mL, the “kinetic sol aq assay buffer (pH 7.4)” value was 0.058–0.11 mg/mL and the LLE ([3]; lipophilic ligand efficiency) was 4.4.

For `COCc1nn(Cc2ccc(Cn3ccccc3=O)cc2)cc1C(=O)NCc1cccc(O)c1F` [Compound 13g, COCc1nn(cc1C(=O)NCc1cccc(c1F)O)Cc1ccc(cc1)CN1C=CC=CC1=O], the “kinetic sol 0.1 N HCl” value was >0.12 mg/mL and the “kinetic sol aq assay buffer (pH 7.4)” value was >0.12 mg/mL.

With `CCc1cccc(CNC(=O)c2cn(Cc3ccc(Cn4ccccc4=O)cc3)nc2COC)c1F` [Compound 13h, CCc1cccc(c1F)CNC(=O)c1cn(nc1COC)Cc1ccc(cc1)CN1C=CC=CC1=O] the solubility kinetic [6] was 29 to 59 µg/mL (≈ 59.4 to 121 µM), the “kinetic sol aq assay buffer (pH 7.4)” value was >0.12 mg/mL and the LLE [3] was 3.7.

For `COCc1nn(Cc2ccc(Cn3ccccc3=O)cc2)cc1C(=O)NCc1cccc(OC(F)F)c1F` [Compound 13i, COCc1nn(cc1C(=O)NCc1cccc(c1F)OC(F)F)Cc1ccc(cc1)CN1C=CC=CC1=O], the solubility kinetic [6] was 63 to 120 µg/mL (≈ 120 to 228 µM), the “kinetic sol aq assay buffer (pH 7.4)” value was >0.12 mg/mL and the IC50 [3] was 0.15 µM. For the same compound, the LLE ([3]; lipophilic ligand efficiency) was 4.2.

In the case of `COCc1nn(Cc2ccc(Cn3ccccc3=O)cc2)cc1C(=O)NCc1c(Cl)ccc(OC)c1F` [Compound 13j, COCc1nn(cc1C(=O)NCc1c(ccc(c1F)OC)Cl)Cc1ccc(cc1)CN1C=CC=CC1=O], the “kinetic sol 0.1 N HCl” value is reported as >0.12 mg/mL and the “kinetic sol aq assay buffer (pH 7.4)” value is reported as >0.12 mg/mL.

For `COCc1nn(Cc2ccc(Cn3ccccc3=O)cc2)cc1C(=O)NCc1c(C#N)ccc(OC)c1F` [Compound 13k, COCc1nn(cc1C(=O)NCc1c(c(ccc1C#N)OC)F)Cc1ccc(cc1)CN1C=CC=CC1=O], the “kinetic sol 0.1 N HCl” value was >0.12 mg/mL, the “kinetic sol aq assay buffer (pH 7.4)” value was >0.12 mg/mL and the clearance at 24 h [4] was 16 mL/min/kg.

For `COCc1nn(Cc2ccc(Cn3ccccc3=O)cc2)cc1C(=O)NCc1cc(OC)ccc1F` [Compound 13l, COCc1nn(cc1C(=O)NCc1cc(ccc1F)OC)Cc1ccc(cc1)CN1C=CC=CC1=O], the “kinetic sol 0.1 N HCl” value was >0.12 mg/mL and the “kinetic sol aq assay buffer (pH 7.4)” value was >0.12 mg/mL.

For `COCc1nn(Cc2ccc(Cn3ccccc3=O)cc2)cc1C(=O)NCc1nccc(OC)c1C` [Compound 14s, COCc1nn(cc1C(=O)NCc1nccc(c1C)OC)Cc1ccc(cc1)CN1C=CC=CC1=O], the clearance at 24 h [4] was 14 mL/min/kg, the IC50 [7] was > 10 µM and the IC50 [8] was > 10 µM. For the same compound, the solubility at 4 h [9] was > 100 µg/mL, the IC50 [10] was 7.5 µM and the IC50 [11] was > 10 µM. The IC50 [12] was > 10 µM.

For `COCc1nn(Cc2ccc(Cn3ccccc3=O)cc2)cc1C(=O)NCc1nccc(OC)c1F` [Compound 14w, 3-Methoxymethyl-1-[4-(2-oxo-2H-pyridin-1-ylmethyl)-benzyl]-1H-pyrazole-4-carboxylic Acid (3-Fluoro-4-methoxy-pyridin-2-ylmethyl)-amide], the “Non-GLP Ames” value [13] was “no risk of genotoxicity”, the “kinetics (in words)” value [3] was “fast kinetics” and the IC50 [14] was > 10 µM. The “CYP450 panel profile (in words)” value [15] was “clean profiles up to the highest concentration tested”, the clearance at 24 h [4] was 11.7 mL/min/kg and the IC50 [16] was > 10 µM. For the same compound, the IC50 ([16]; listed as Sebetralstat) was > 40 µM, the IC50 [17] was > 10 µM and the pKa [18] was 3.6. The clearance at 24 h [5] was 8.7 mL/min/kg, the “human plasma protein binding (PPB)” value [19] was 77% and the “inhibition of hERG channel (in words)” value [20] was “no significant inhibition”.

In the case of `COc1ccnc(CNC(=O)c2cn(Cc3ccc(Cn4ccccc4=O)cc3)nc2C(F)(F)F)c1F` [Compound 16, COc1ccnc(c1F)CNC(=O)c1cn(nc1C(F)(F)F)Cc1ccc(cc1)CN1C=CC=CC1=O], the “kinetics (in words)” value [3] is reported as “fast kinetics”, the “CYP450 panel profile (in words)” value [15] is reported as “clean profiles up to the highest concentration tested” and the clearance at 24 h [4] is reported as 7.1 mL/min/kg. The IC50 [7] was > 10 µM, the IC50 [8] was > 10 µM and the IC50 [16] was > 10 µM. The IC50 [10] was > 10 µM, the clearance at 24 h [5] was 10 mL/min/kg and the IC50 [11] was > 10 µM. The “human plasma protein binding (PPB)” value [19] was 87% and the IC50 [12] was > 10 µM.
